Results published in patent US20100210558A1, “MINIGASTRIN AS A THERAPEUTIC AGENT” (priority 2007, published 2010).
Where no end group is shown, it is not given here.

What was measured:
HCMV strain AD169 = test: HCMV plaque reduction assay; assay type: cell-based; conditions: HCMV AD169 in MRC-5 cells; peptide 10 micrograms per ml; 7-10 days
Excerpt: (§1) Cells were split twice a week 1:2.
Ganciclovir was used as positive control.

[1] = Cytotoxicity in HCMV assay (CellTiter 96 cell viability); assay type: cell-based; conditions: human, MRC-5 cells (embryonal lung fibroblasts), 6 days incubation
Excerpt: as §1

MRSA = test: Methicillin Resistant Staphylococcus Aureus (MRSA) assay; assay type: cell-based; conditions: peptide 10 micrograms per ml, visual reading of growth
Pseudomonas aeruginosa = Pseudomonas aeruginosa assay; assay type: cell-based; conditions: peptide 10 micrograms per ml, visual reading of growth
Streptococcus pneumoniae = Streptococcus pneumoniae assay; assay type: cell-based; conditions: peptide 10 micrograms per ml, visual reading of growth
A549 cells = test: Propidium iodide cell cycle assay; assay type: cell-based, human; conditions: peptide 10 micrograms per ml, 24 hours, FACS
[2] = system: Human Peripheral Blood Mononuclear Cells (PBMC); test: T cell proliferation assay (PHA, 3H-thymidine); assay type: cell-based; conditions: peptide 10 micrograms per ml, 3 days
[3] = system: Human Peripheral Blood Mononuclear Cells (PBMC); test: B cell proliferation assay (SAC plus Interleukin-2, 3H-thymidine); assay type: cell-based; conditions: peptide 10 micrograms per ml, 3 days
RAW 264.7 cells = test: Phagocytosis assay (Fluorescein-labeled Escherichia coli); assay type: cell-based, mouse; conditions: peptide 10 micrograms per ml, Fluorescein-labeled E. coli, flow cytometry
[4] = system: spleen cells (IL-2, IL-4, IL-5, IFN-γ, TNF-α protein levels); test: Th1/Th2 cytokine profiling assay; assay type: cell-based, Balb/c mice; conditions: Ovalbumin-restimulated Balb/c spleen cells; peptide 10 micrograms per ml; 72 hours
TNF alpha production = TNF alpha production assay (LPS-stimulated macrophages, ELISA); assay type: cell-based; conditions: human macrophages, peptide 10 micrograms per ml, lipopolysaccharide 200 ng/ml, overnight
[5] = system: Primary Human endothelial cells (HUVEC); test: Endothelial cell migration assay; assay type: cell-based; conditions: peptide 10 micrograms per ml, 22 hours
HUVEC = test: Endothelial tube formation assay; assay type: cell-based, human; conditions: peptide 10 micrograms per ml, 20 hours
Excerpt: Positive control was vehicle only.

in vitro = conditions: human
[6] = Cytotoxicity in HIV-1 assay (MTS cell viability); conditions: human
[7] = system: hepatitis B virus (HBV) ayw strain; test: HBV replication assay (secreted HBV DNA, TaqMan PCR); conditions: HepG2-2.2.15 cells; peptide 10 micrograms per ml; six days; HBV DNA in supernatant

For LEEEEEAYGWMDF-NH2 [Minigastrin I], which “% plaque reduction” value (HCMV strain AD169) is on record?
Its value is 1.4%.

And the viability at 144 h [1]?
The viability at 144 h was 100%.

And the “% inhibition” value (MRSA)?
The value was 0.0%.

What about the “% inhibition” value (Pseudomonas aeruginosa) of the same substance?
The value was 0.0%.

And the “% inhibition” value (Streptococcus pneumoniae)?
The value was 0.0%.

And the “Cell cycle analysis G0/G1” value (A549 cells)?
The value was 57.1.

What about the “Cell cycle analysis G2/M” value (A549 cells) of the same substance?
The value was 10.3.

And the “Cell cycle analysis S” value (A549 cells)?
Its value is 32.6.

What about the “% of PHA induced control” value [2] of the same substance?
The value was 101.1%.

And the “% of SAC/IL2 induced control” value [3]?
Its value is 78.4%.

And the “% of control phagocytosis” value (RAW 264.7 cells)?
The value was 145.7%.

What about the “IFNγ spleen cells; TH1 response (% of control)” value [4] of the same substance?
Its value is 79.5 % of control.

And the “IL-2 spleen cells (% of control)” value [4]?
Its value is 149.2 % of control.

And the “IL-4 spleen cells; TH2 response (% of control)” value [4]?
Its value is 106.6 % of control.

What about the “IL-5 spleen cells; TH2 response (% of control)” value [4] of the same substance?
The value was 66.5 % of control.

And the “TNF-a spleen cells; TH1 response (% of control)” value [4]?
The value was 99.0 % of control.

What about the “% of LPS induction” value (TNF alpha production) of the same substance?
Its value is 79.0%.

And the “% inhibition of migration” value [5]?
The value was −3%.

What about the “% inhibition of tube formation” value (HUVEC) of the same substance?
The value was 36%.

And the viability at 144 h, 10 micrograms per ml (in vitro)?
Its viability at 144 h, 10 micrograms per ml is 9.5%.

And the viability at 10 micrograms per ml [6]?
Its viability at 10 micrograms per ml is 100%.

What about the “% inhibition of HBV replication in HEP G2 cells” value [7] of the same substance?
Its value is 49.9%.
